Assays:
Histamine H3 receptor = Histamine H3 receptor (Homo sapiens, UniProt Q9Y5N1)
[1] = biological target: Voltage-dependent L-type calcium channel subunit alpha-1C (Rattus norvegicus, UniProt P22002); type: functional
Progesterone receptor = biological target: T1, Progesterone receptor (Homo sapiens, UniProt P06401); type: functional
T1 sequence (P06401 whole entry): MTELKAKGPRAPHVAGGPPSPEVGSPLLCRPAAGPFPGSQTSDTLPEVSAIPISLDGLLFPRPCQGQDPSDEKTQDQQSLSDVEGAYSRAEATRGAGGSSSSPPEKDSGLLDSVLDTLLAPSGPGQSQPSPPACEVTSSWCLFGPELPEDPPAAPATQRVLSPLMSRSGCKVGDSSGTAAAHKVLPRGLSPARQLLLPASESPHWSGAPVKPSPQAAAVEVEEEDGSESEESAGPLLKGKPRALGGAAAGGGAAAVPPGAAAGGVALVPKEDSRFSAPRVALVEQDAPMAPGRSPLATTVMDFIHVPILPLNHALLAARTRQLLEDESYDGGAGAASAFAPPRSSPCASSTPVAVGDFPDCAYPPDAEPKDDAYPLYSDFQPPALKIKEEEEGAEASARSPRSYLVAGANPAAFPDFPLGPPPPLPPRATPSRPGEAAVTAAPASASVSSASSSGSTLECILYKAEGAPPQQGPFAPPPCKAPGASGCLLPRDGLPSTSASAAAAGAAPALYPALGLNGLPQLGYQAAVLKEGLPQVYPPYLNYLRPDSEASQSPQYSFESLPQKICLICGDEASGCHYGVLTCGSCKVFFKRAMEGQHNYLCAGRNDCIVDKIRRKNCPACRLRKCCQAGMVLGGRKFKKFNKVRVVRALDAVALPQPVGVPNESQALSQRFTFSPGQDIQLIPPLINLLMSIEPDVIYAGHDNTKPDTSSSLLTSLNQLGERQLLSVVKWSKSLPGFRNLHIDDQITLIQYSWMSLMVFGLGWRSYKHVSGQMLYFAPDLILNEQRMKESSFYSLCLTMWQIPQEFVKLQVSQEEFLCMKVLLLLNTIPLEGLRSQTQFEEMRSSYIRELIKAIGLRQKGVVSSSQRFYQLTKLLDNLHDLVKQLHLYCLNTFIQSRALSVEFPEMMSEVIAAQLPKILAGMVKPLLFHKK

Mu-type opioid receptor = Mu-type opioid receptor (Homo sapiens, UniProt P35372)
[2] = biological target: T2, Alpha-1A adrenergic receptor (Homo sapiens, UniProt P35348); type: functional, cell-based
T2 sequence (P35348 whole entry): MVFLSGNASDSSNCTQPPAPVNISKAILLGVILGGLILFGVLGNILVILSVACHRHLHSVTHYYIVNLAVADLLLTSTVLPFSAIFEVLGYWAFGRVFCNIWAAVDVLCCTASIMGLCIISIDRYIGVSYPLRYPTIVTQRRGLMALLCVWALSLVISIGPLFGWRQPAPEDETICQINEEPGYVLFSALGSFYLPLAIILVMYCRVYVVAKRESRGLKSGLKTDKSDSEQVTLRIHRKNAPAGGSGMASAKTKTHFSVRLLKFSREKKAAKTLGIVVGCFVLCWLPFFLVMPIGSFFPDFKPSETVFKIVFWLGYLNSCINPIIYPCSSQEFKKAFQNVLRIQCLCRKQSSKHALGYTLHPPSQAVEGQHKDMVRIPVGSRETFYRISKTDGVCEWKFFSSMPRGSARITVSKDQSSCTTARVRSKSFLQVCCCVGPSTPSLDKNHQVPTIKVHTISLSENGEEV

[3] = biological target: Muscarinic acetylcholine receptor M3 (Homo sapiens, UniProt P20309)
[4] = biological target: Beta-2 adrenergic receptor (Homo sapiens, UniProt P07550); type: functional, cell-based
Histamine H1 receptor = Histamine H1 receptor (Homo sapiens, UniProt P35367)
Cannabinoid receptor 1 = Cannabinoid receptor 1 (Homo sapiens, UniProt P21554); type: functional, cell-based
[5] = biological target: Prostaglandin G/H synthase 1 (Homo sapiens, UniProt P23219); type: functional
Thromboxane A2 receptor = biological target: T3, Thromboxane A2 receptor (Homo sapiens, UniProt P21731); type: functional, cell-based
T3 sequence (P21731 whole entry): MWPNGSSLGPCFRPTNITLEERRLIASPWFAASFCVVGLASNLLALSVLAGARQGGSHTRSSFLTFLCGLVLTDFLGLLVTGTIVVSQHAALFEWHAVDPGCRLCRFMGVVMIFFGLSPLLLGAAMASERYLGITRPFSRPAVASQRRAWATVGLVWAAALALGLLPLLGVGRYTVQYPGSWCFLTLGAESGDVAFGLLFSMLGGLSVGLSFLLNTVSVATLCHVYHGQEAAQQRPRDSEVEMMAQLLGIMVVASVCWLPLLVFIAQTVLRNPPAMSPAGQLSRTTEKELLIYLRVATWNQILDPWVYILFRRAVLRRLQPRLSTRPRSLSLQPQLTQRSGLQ

[6] = biological target: Sodium-dependent noradrenaline transporter (Homo sapiens, UniProt P23975)
Further: assay procedure not described here.

Muscarinic acetylcholine receptor M3, sequence (P20309 whole entry): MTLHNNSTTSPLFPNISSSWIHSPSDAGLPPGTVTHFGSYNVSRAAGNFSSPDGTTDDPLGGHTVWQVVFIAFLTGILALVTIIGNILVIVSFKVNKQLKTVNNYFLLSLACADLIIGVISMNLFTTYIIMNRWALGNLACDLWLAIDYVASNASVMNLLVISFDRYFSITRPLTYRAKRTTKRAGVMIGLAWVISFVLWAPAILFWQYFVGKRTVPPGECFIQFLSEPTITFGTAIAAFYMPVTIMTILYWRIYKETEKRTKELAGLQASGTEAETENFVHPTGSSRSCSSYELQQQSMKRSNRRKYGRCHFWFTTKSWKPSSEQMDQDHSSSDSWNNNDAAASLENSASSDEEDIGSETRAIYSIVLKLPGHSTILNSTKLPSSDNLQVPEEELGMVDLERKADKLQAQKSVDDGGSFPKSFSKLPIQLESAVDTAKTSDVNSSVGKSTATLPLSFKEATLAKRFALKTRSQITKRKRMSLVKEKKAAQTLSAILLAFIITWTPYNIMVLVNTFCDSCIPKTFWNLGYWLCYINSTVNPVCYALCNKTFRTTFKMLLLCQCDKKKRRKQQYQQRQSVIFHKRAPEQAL
Histamine H3 receptor, sequence (Q9Y5N1 whole entry): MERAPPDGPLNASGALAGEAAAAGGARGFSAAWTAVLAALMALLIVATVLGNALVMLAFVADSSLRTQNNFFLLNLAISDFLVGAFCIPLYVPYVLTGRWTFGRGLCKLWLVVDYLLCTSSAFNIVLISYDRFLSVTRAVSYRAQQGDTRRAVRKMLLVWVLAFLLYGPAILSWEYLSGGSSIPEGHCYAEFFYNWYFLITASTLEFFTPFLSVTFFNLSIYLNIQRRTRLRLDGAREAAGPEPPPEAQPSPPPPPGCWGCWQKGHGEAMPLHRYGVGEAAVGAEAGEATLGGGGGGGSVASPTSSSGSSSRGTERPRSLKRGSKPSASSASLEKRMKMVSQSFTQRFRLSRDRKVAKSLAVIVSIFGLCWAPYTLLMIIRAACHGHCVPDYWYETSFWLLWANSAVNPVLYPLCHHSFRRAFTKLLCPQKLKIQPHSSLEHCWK
Sodium-dependent noradrenaline transporter, sequence (P23975 whole entry): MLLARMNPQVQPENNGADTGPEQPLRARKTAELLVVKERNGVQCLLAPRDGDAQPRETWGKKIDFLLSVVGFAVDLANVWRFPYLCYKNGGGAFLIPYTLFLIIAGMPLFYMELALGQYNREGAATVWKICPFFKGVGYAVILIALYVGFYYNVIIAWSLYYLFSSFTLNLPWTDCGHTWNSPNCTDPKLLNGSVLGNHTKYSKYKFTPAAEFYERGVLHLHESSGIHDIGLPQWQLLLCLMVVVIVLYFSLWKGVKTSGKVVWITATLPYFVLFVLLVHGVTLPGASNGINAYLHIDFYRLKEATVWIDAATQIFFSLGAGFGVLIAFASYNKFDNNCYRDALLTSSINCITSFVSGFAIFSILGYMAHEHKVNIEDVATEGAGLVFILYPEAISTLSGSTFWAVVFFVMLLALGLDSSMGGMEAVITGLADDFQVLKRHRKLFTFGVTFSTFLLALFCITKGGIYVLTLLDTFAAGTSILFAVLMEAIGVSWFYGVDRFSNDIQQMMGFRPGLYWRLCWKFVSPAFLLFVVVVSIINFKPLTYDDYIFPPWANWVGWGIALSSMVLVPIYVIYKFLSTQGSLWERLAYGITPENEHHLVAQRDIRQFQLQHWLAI
Cannabinoid receptor 1, sequence (P21554 whole entry): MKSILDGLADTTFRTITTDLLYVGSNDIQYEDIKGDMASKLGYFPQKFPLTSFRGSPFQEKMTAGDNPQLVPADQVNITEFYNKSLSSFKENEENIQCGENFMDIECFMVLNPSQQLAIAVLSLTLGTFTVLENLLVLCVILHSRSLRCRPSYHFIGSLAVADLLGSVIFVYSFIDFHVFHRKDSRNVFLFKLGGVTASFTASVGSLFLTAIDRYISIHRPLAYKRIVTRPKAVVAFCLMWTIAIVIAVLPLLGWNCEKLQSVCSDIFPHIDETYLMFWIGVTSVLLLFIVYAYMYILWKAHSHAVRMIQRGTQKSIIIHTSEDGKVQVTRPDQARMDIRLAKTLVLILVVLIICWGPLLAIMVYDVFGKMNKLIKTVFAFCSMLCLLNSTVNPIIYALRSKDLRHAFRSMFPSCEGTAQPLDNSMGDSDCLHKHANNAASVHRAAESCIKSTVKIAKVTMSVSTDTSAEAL
Voltage-dependent L-type calcium channel subunit alpha-1C, sequence (P22002 whole entry): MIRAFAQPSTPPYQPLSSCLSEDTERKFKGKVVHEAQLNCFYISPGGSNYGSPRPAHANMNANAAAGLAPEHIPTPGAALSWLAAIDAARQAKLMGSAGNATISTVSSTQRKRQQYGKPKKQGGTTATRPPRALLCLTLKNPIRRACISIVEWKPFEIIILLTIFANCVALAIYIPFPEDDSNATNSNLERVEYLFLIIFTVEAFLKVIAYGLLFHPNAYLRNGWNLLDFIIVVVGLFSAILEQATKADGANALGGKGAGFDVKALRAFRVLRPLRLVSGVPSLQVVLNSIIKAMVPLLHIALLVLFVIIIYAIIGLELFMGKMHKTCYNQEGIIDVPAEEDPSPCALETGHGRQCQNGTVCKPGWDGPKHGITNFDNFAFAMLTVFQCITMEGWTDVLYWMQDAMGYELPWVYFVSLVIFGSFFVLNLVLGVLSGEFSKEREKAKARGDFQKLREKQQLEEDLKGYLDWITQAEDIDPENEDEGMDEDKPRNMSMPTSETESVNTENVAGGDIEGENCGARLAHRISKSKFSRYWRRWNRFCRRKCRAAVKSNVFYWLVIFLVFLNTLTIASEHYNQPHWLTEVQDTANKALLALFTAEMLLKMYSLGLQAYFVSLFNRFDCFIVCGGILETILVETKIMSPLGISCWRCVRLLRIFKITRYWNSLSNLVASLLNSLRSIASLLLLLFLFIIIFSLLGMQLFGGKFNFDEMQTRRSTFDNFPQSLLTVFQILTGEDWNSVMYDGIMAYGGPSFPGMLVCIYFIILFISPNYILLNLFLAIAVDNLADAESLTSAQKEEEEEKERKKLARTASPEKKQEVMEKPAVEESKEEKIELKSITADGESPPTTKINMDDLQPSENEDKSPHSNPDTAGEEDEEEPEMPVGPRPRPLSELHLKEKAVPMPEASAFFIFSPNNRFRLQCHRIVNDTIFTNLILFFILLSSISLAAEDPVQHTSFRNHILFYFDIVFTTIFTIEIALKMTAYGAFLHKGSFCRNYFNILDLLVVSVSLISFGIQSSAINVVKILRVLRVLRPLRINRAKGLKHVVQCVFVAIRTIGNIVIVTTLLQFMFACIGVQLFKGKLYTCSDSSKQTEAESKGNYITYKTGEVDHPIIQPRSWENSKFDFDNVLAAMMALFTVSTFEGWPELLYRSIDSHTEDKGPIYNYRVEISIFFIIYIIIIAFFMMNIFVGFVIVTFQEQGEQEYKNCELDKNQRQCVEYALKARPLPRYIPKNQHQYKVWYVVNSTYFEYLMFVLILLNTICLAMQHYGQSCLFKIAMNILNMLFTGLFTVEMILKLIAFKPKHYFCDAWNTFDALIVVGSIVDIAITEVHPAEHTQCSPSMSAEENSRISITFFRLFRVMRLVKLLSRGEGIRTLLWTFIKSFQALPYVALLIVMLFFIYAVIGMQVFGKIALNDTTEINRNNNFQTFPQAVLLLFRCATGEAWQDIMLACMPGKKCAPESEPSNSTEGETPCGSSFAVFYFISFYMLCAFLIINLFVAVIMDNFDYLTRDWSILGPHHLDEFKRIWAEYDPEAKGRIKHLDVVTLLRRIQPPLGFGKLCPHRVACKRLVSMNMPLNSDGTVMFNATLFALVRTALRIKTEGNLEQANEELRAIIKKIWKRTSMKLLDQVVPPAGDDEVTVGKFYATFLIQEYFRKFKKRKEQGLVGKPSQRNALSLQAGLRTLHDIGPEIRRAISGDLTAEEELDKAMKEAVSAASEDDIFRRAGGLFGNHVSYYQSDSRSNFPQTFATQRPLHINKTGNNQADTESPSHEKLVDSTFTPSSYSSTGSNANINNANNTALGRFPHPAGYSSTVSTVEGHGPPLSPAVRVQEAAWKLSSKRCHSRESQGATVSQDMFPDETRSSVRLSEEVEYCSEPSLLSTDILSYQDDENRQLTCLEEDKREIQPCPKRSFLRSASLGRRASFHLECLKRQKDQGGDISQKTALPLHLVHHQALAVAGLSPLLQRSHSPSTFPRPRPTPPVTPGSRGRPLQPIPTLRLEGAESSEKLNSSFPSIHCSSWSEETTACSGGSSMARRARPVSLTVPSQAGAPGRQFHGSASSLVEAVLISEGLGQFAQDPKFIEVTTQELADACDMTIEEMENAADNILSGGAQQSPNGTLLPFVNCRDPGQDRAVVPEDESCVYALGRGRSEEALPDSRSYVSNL
Mu-type opioid receptor, sequence (P35372 whole entry): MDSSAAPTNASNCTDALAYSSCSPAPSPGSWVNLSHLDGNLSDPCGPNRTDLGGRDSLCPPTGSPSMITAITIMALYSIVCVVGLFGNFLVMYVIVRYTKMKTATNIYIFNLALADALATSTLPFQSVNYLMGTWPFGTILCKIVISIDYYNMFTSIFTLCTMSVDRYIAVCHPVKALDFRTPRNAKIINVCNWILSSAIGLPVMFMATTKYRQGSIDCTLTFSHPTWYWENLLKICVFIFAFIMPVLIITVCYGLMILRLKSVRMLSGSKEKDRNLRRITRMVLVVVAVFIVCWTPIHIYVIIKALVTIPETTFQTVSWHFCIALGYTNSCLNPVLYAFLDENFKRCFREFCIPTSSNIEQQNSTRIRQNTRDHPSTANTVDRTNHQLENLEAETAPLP

Structure (SMILES) | AC50 (Histamine H3 receptor) [µM] | AC50 [1] [µM] | AC50 (Progesterone receptor) [µM] | AC50 (Mu-type opioid receptor) [µM] | AC50 [2] [µM] | AC50 [3] [µM] | AC50 [4] [µM] | AC50 (Histamine H1 receptor) [µM] | AC50 (Cannabinoid receptor 1) [µM] | AC50 [5] [µM] | AC50 (Thromboxane A2 receptor) [µM] | AC50 [6] [µM]
O=C1Nc2ccc(Cl)cc2[C@@](C#CC2CC2)(C(F)(F)F)O1 [EFAVIRENZ] | > 30 | 18.8 | 14 | > 30 | > 30 | > 30 | > 30 | > 30 | > 30 | – | – | –
C[C@H]1CNCCc2ccc(Cl)cc21 [LORCASERIN] | > 30 | – | > 30 | > 30 | > 30 | > 30 | > 30 | 28 | 2.6 | – | – | –
CCCN1C[C@H](CSC)C[C@@H]2c3cccc4[nH]cc(c34)C[C@H]21 [PERGOLIDE] | > 30 | > 10 | > 30 | > 30 | 0.33 | – | > 30 | – | > 10 | – | – | –
COCCCN1CCC(NC(=O)c2cc(Cl)c(N)c3c2OCC3)CC1 [PRUCALOPRIDE] | > 30 | – | > 30 | > 30 | > 30 | > 30 | > 30 | > 30 | > 30 | 23.6 | > 30 | > 30
CCOC(=O)[C@H](CCc1ccccc1)N[C@@H](C)C(=O)N1[C@H](C(=O)O)C[C@@H]2CCC[C@@H]21 | > 10 | > 10 | – | > 30 | > 30 | – | > 30 | – | > 30 | – | – | –
CS(=O)(=O)c1ccc(C2=C(c3ccccc3)C(=O)OC2)cc1 [ROFECOXIB] | > 10 | > 10 | – | > 10 | > 30 | – | > 30 | – | > 30 | – | > 30 | > 30
Cn1nnc2c(C(N)=O)ncn2c1=O [TEMOZOLOMIDE] | > 30 | > 10 | > 30 | > 30 | > 30 | > 30 | > 30 | > 30 | > 30 | – | – | –
CN(C)CCC(c1ccc(Cl)cc1)c1ccccn1 (stereo not given) [CHLORPHENIRAMINE] | 11 | > 10 | – | > 10 | > 30 | – | > 30 | – | > 30 | – | – | –
c1cnc(N2CCN(Cc3ccc4c(c3)OCO4)CC2)nc1 [PIRIBEDIL] | > 30 | – | > 30 | > 30 | > 30 | > 30 | > 30 | > 30 | > 30 | – | – | –
C[C@@H](O)[C@H]1C(=O)N2C(C(=O)O)=C(S[C@@H]3CN[C@H](C(=O)N(C)C)C3)[C@H](C)[C@H]12 [MEROPENEM] | > 300 | > 10 | > 300 | > 300 | > 300 | – | > 300 | – | > 300 | – | – | –
CNC(=O)c1ccccc1Sc1ccc2c(/C=C/c3ccccn3)n[nH]c2c1 [AXITINIB] | > 30 | – | > 30 | > 30 | > 30 | > 30 | > 30 | > 30 | > 30 | – | – | –
CN(C)CCC=C1c2ccccc2C(C)(C)c2ccccc21 | 25 | – | > 30 | 24 | > 30 | 0.38 | > 30 | 0.0369 | > 30 | – | – | –
c1ccc([C@H]2CN3CCSC3=N2)cc1 [LEVAMISOLE] | > 30 | > 30 | > 30 | > 30 | > 30 | – | > 30 | – | > 30 | – | – | –
N[C@@H]1[C@H]2CN(c3nc4c(cc3F)c(=O)c(C(=O)O)cn4-c3ccc(F)cc3F)C[C@@H]12 [TROVAFLOXACIN] | > 30 | – | > 30 | > 30 | > 30 | – | > 30 | – | > 30 | – | – | –
CNC1Cc2ccccc2N(C)c2ccccc21 (stereo not given) [METAPRAMINE] | > 30 | – | > 30 | > 30 | > 30 | > 30 | > 30 | 0.34 | > 30 | – | – | –
CC(C)C[C@H]1C(=O)N2CCC[C@H]2[C@]2(O)O[C@](NC(=O)[C@@H]3C=C4c5cccc6[nH]c(Br)c(c56)C[C@H]4N(C)C3)(C(C)C)C(=O)N12 [BROMOCRIPTINE] | > 30 | > 10 | > 30 | 14 | 0.844 | – | > 30 | – | > 30 | 4.61 | > 3 | > 30
Cc1nc([N+](=O)[O-])cn1-c1ccc([N+](=O)[O-])cc1 [NITREFAZOLE] | > 30 | – | > 30 | – | > 30 | > 30 | > 30 | > 30 | > 30 | – | – | –
C[C@]12CCC(=O)C=C1CC[C@@H]1[C@@H]2[C@@H](O)C[C@@]2(C)[C@H]1CC[C@]2(O)C(=O)CO [HYDROCORTISONE] | > 10 | > 10 | – | > 30 | > 30 | – | > 30 | – | > 30 | – | – | –
CC(=O)Nc1ccc(O)cc1 [ACETAMINOPHEN] | > 30 | – | > 30 | > 30 | > 30 | – | > 30 | – | > 30 | > 30 | > 30 | > 30
C1CCC(C(CC2CCCCN2)C2CCCCC2)CC1 (stereo not given) [PERHEXILINE] | > 30 | – | > 30 | 16 | > 10 | – | > 30 | – | > 30 | – | – | –
NCC(CC(=O)O)c1ccc(Cl)cc1 (stereo not given) [BACLOFEN] | > 30 | > 10 | > 30 | > 30 | > 30 | – | > 30 | – | > 30 | > 30 | > 30 | > 30
Cc1ccc(-c2cc(C(F)(F)F)nn2-c2ccc(S(N)(=O)=O)cc2)cc1 [CELECOXIB] | > 10 | > 10 | – | > 30 | > 30 | – | > 30 | – | > 30 | – | – | –

From ChEMBL document CHEMBL5291721, “A preclinical secondary pharmacology resource illuminates target-adverse drug reaction associations of marketed drugs” (Nat Commun, 2023)
